Laboratory results as given in patent publication US10934326B2, “Peripheral modifications on pocket-redesigned vancomycin analogs synergistically improve antimicrobial potency and durability” (priority 2016, dated 2021).
Like-named read-outs stand apart in the source and are kept apart here.

What was measured:
[1] = test system: Enterococcus faecium (VanA VRE, ATCC BAA-2317); conditions: previously reported data; cited from earlier work
[2] = test system: methicillin and oxacillin-resistant Staphylococcus aureus subsp. aureus (MRSA strain ATCC 43300); conditions: previously reported data; cited from earlier work
[3] = test system: vancomycin-sensitive Staphylococcus aureus (VSSA strain ATCC 25923); conditions: previously reported data; cited from earlier work
[4] = test system: VanA VRE (E. faecalis BM 4166 and E. faecium ATCC BAA-2317); test: Cell wall permeability assay (propidium iodide uptake); type: cell-based, Enterococcus faecalis; Enterococcus faecium; conditions: 10 μM compound
[5] = test system: vancomycin-resistant Enterococcus faecalis (VanB VRE, strain ATCC 51299); conditions: previously reported data; cited from earlier work
[6] = test system: vancomycin-resistant Enterococcus faecalis (VanA VRE, BM4166); conditions: BM 4166; previously reported data; cited from earlier work
[7] = test system: VSSA, MRSA, VanA and VanB VRE; conditions: cited from earlier work
[8] = test system: VanA VRE (E. faecalis BM 4166 and E. faecium ATCC BAA-2317); test: Cell wall biosynthesis inhibition assay (accumulation of UDPMurNAc-pp 19); type: cell-based, Enterococcus faecalis; Enterococcus faecium; conditions: 35 μg/mL, tetracycline pretreated VanA VRE, 30 minutes, 37° C.
From the text: The inhibition of bacterial cell wall synthesis was established in an assay that quantitates the accumulation of the peptidoglycan precursor UDP-N-acetyl-muramyl-depsipentapeptide (Compound 19, UDPMurNAc-pp), resulting from inhibited cell wall incorporation following antibiotic treatment. […] This procedure was reduced in scale and modified to enlist reverse-phase HPLC separation, UV detection, and calibration curve determination of the amount of isolated 19, permitting use with limited sample sizes. A larger scale isolation and full characterization of 19 provided the material needed to establish a linear calibration curve.
The bacterial suspension was heated at 100° C. for 15 minutes to release cytosolic 19. The entire supernatant was analyzed by semi-preparative reverse-phase HPLC with a single injection and the amount of 19 was quantitated with use of the calibration curve.
Cultures of vancomycin-resistant Enterococcus faecalis (VanA VRE, BM4166) and Enterococcus faecium (VanA VRE, ATCC BAA-2317) were inoculated and grown in an orbital shaker at 37° C. in 100% brain-heart infusion broth for 12 hours. The above bacterial solution was subjected to a subculture to obtain fresh mid-log phase bacterial cells (total volume of bacterial suspension=5 mL, incubation time=6 hours, OD600=0.6). […] Vancomycin analogues were added and the mixture was incubated at 37° C. for a further 30 minutes.
After the bacteria were harvested (3000 rpm, 4° C., 20 minutes), this bacterial precipitate was washed and resuspended in 5 mM glucose and 5 mM HEPES buffer (500 μL, 1:1, pH=7.2). This bacterial suspension was heated at 100° C. for 15 minutes and centrifuged (13000 rpm, 25° C., 10 minutes). […] [*****Allen et al., Antimicrob. Agents Chemother. 1996, 40(10):2356-2362]; Liu et al., J. Am. Chem. Soc. 2001, 123:9916-9917.] The amount of UDP Mur N-Ac pentapeptide (19) was quantified by use of calibration curves for E. faecalis BM4166, and for E. faecium ATCC BAA-2317 based on the area under the curve (AUC).

[9] = D-Ala-D-Lac versus D-Ala-D-Ala; cited from earlier work
[10] = test system: vancomycin-resistant Enterococcus faecalis (VanA VRE, BM4166); test: In vitro antimicrobial assay (MIC), VanA E. faecalis; type: cell-based
[11] = test system: Enterococcus faecium (VanA VRE, ATCC BAA-2317); test: In vitro antimicrobial assay (MIC), VanA E. faecium; type: cell-based
[12] = test system: red blood cells (pig whole blood); test: Hemolysis assay; type: cell-based; conditions: assay time extended to 24 hours
Description: The blood cells in pig whole blood (2 mL, Pel-Free Biologicals, non-sterile, sodium citrate) were harvested (3000 rpm, 4° C., 20 minutes), and the red blood precipitate was washed and resuspended in phosphate buffered saline (pH 7.4). This diluted red blood cell stock solution (384 μL) was incubated with the antibiotic solution in DMSO (16 μL) in a 1 mL microtube to achieve the final concentration of the test compounds. […]
The solution was diluted with phosphate buffer saline (pH 7.4, 200 μL) at 25° C. and centrifuged (3000 rpm, 4° C., 20 minutes). The supernatant (200 μL) was transferred to a microtiter plate. A positive control (0.2% vol % Triton® X-100, 100% total hemolysis) and the negative control (no antibiotic, 0% hemolysis) were prepared. A350 was measured using a microplate reader (Molecular Devices®, Max Gemini EX). The % hemolysis was determined by calculating the following equation shown below (eq. 1).
Although the differences in mammalian and bacterial cell wall composition are extensive, including the more highly anionic composition of the bacterial cell wall responsible for a preferential and differential cation binding, lysis of mammalian cell membranes (red blood cells) are potential off-target consequences of cationic compounds that impact bacterial cell membrane integrity. […]

Row | Structure (SMILES) | Antimicrobial Activity, MIC, VanA E. faecium [1] | Antimicrobial Activity, MIC, MRSA S. aureus [2] | Antimicrobial Activity, MIC, sensitive S. aureus [3] | induced cell membrane permeability (propidium uptake) [4] | Antimicrobial Activity, MIC, VanB E. faecalis [5] | Antimicrobial Activity, MIC, VanA E. faecalis [6] | MICs (range over panel) [7] | inhibition of bacterial cell wall synthesis (accumulation of 19) [8] | reduction of binding affinity for the altered ligand [9] | Antimicrobial Activity, MIC, VanA E. faecalis ([10]; BM 4166) | antibiotic susceptibility profile of the strain ([10]; VanA E. faecalis BM 4166) | Antimicrobial Activity, MIC, VanA E. faecium ([11]; ATCC BAA-2317) | antibiotic susceptibility profile of the strain ([11]; VanA E. faecium ATCC BAA-2317) | red blood cell hemolytic activity, extended exposure [12]
1 | CN[C@H](CC(C)C)C(=O)N[C@H]1C(=O)N[C@@H](CC(N)=O)C(=O)N[C@H]2C(=S)N[C@@H]3C(=O)N[C@H](C(=O)N[C@H](C(=O)O)c4cc(O)cc(O)c4-c4cc3ccc4O)[C@H](O)c3ccc(c(Cl)c3)Oc3cc2cc(c3OC2OC(CO)C(O)[C@H](O)[C@@H]2O[C@H]2CC(C)(NCc3ccc(-c4ccc(Cl)cc4)cc3)[C@H](O)[C@H](C)O2)Oc2ccc(cc2Cl)[C@H]1O (some centres unmarked) [Compound 6] | 4 µg/mL | 2 µg/mL | 2 µg/mL | Neither compound significantly impacts membrane permeability | 2 µg/mL | 4 µg/mL | 2 to 4 µg/mL | inhibit cell wall biosynthesis to a similar extent | – | – | – | – | – | –
2 | CN[C@H](CC(C)C)C(=O)N[C@H]1C(=O)N[C@@H](CC(N)=O)C(=O)N[C@H]2C(=O)N[C@H]3C(=O)N[C@H](C(=O)N[C@H](C(=O)O)c4cc(O)cc(O)c4-c4cc3ccc4O)[C@H](O)c3ccc(c(Cl)c3)Oc3cc2cc(c3O[C@@H]2O[C@H](CO)[C@@H](O)[C@H](O)[C@H]2O[C@H]2C[C@](C)(N)[C@H](O)[C@H](C)O2)Oc2ccc(cc2Cl)[C@H]1O [Compound 1, vancomycin] | 250 µg/mL | 0.5 µg/mL | 0.5 µg/mL | – | 8 µg/mL | 250 µg/mL | – | do not effectively inhibit bacterial cell wall synthesis | 1000 fold | 250 µg/mL | resistant | 250 µg/mL | resistant | no different from the control tigecycline
